# Source: US4007201A, “Novel pyrazole derivatives” (Kyorin Pharmaceutical Co. Ltd., priority 1975, dated 1977)
# How the values were obtained:
# [1] = tested on: blood glucose level in non-diabetic rats; assay: Synergistic effect on the insulin activity in non-diabetic rats; format: in vivo, male Sprague Dawley rats; conditions: insulin 0.1 unit/kg s.c.; compound 4 25 mg/kg oral
# Experimental: (§1) The animals used for the pharmacological studies were male Sprague Dawley rats exept otherwise noted. 1. Hypoglycemic activity in non-diabetic rats (screening test)
# The blood glucose levels in the non-diabetic rats were respectively determined after a subcutaneous injection of insulin (0.1 unit/kg), after an oral administration of the compound 4 (25 mg/kg), and after simultaneous administrations of insulin and the compund 4.
# [2] = tested on: serum FFA level in alloxan diabetic rats; assay: Serum FFA level in alloxan diabetic rats loaded with much quantity of glucose; format: in vivo, male Sprague Dawley rats; conditions: compound 4 12.5 and 100 mg/kg, phenformin 100mg/kg; oral with 2g/kg of glucose; 3 hours
# Experimental: (§2) These new compounds of the present invention are very useful as anti-diabetic agents, which is supported from the following pharmacological studies. The animals used for the pharmacological studies were male Sprague Dawley rats exept otherwise noted. 1. Hypoglycemic activity in non-diabetic rats (screening test)
# (§3) Respective dose of the compound 4 (12.5 and 100 mg/kg) together with 2g/kg of glucose was orally administered to the alloxan diabetic rats.
# [3] = tested on: serum triglyceride level in alloxan diabetic rats; assay: Serum triglyceride level in alloxan diabetic rats, 10 consecutive days; format: in vivo, male Sprague Dawley rats
# Experimental: as §1
# (§4) Alloxan diabetic rats were obtained as follows. Namely, 2.5% fresh solution of alloxan (50mg/kg) was injected into the tail vein of male rats, and the rats were daily injected with insulin (1-4 units/day) from the 7th day after the administration of alloxan. The alloxan diabetic rats which were survived for more than 2 months with daily injection of insulin were used. The alloxan diabetic rats were fasted for 24 hours after the last treatment with insulin, and then the compound of the present invention was orally administered. The blood glucose levels were determined by the micro method of Momose before and 2, 4 and 6 hours after the administration.
# (§5) The alloxan diabetic rats which were prepared and then preserved for 6 months with insulin as described in the previous experiment were used.
# Acute toxicity in mice = format: in vivo
# Description: (§6) Thus, the toxicity of the present compound was considered to be extremely low.
# [4] = tested on: serum FFA level in non-diabetic rats; assay: Serum free fatty acids (FFA) level in non-diabetic rats at 90 minutes; format: in vivo, male Sprague Dawley rats; conditions: 100 mg/kg oral
# Experimental: as §2
# (§7) The rats were fasted for 16-18 hours, and those weighing 130-160g were used. The compound 4 suspended in 1% CMC was orally administered to the fasted rats, and at 90 minutes after administration blood was drawn from the […] vena cava under anesthesia with sodium pentobarbital. The blood glucose level was determined by the method of Momose, and the serum FFA level was determined by the method of Itaya and Ui as described in J. Lipid Res., 6, 16 (1965), respectively.
# [5] = tested on: serum cholesterol level in alloxan diabetic rats; assay: Serum cholesterol level in alloxan diabetic rats, 10 consecutive days; format: in vivo, male Sprague Dawley rats
# Experimental: as §2, §4, §5
# Acute toxicity in rats = format: in vivo
# Description: as §6
# [6] = tested on: blood glucose level in non-diabetic rats; assay: Blood glucose level in non-diabetic rats at 90 minutes; format: in vivo, male Sprague Dawley rats; conditions: 100 mg/kg oral
# Experimental: as §2, §7
# [7] = tested on: blood glucose level in fasted and glucose-loaded rats; assay: Duration of the action of the compound 4 (fasted, glucose-loaded rats); format: in vivo, male Sprague Dawley rats; conditions: for Blood glucose before administration: 50 mg/kg oral group, before administration (baseline); for Blood glucose before administration / Blood glucose 2 hours / Blood glucose 4 hours / Blood glucose 6 hours: ± SE
# Experimental: as §2
# The rats were fasted for 16 - 18 hours prior to the experiment and those weighing 140 - 160g were used. Glucose solution (100 mg/0.5ml/150g body weight) was subcutaneously injected on the fasted rats. Each of the present compounds was suspended in 1% carboxymethyl cellulose (CMC), and about 0.5 ml of the suspension (corresponding to 100 mg/kg of the compound per body weight) was orally administered. Blood samples were taken from the tail vein of the rats at 2 and 5 hours after the administration, and the blood glucose level in each sample (0.1 ml) was determined by the micro method of Momose as described in SOGO-RINSHO 11, 120 (1962).
# In order to reconfirm the effectiveness of the compounds of the present invention, more detailed examinations were performed on the most representative compound (compound of the Example 4 abbreviated hereinafter as the compound 4). The compound 4 suspended in 1% CMC was orally administered in a dose of 50 mg/kg to the fasted and glucose-loaded rats according to the preceding screening test, and the blood glucose levels at 2, 4 and 6 hours after the administration were determined by the method of Momose.
# [8] = tested on: serum FFA level in alloxan diabetic rats; assay: Serum FFA level in alloxan diabetic rats, 10 consecutive days; format: in vivo, male Sprague Dawley rats
# Experimental: as §2, §4, §5
# [9] = tested on: serum FFA level in non-diabetic rats; assay: Serum FFA level in non-diabetic rats, oral administration for 10 days; format: in vivo, male Sprague Dawley rats
# Experimental: as §2
# The compound suspended in 1% CMC was orally administered once a day for 10 days to healthy rats weighing 140-160g. The rats were fasted for 16-18 hours prior to the last administration. Blood samples were taken at 90 minutes after the last administration, and the blood glucose and serum FFA levels were determined, respectively.
# [10] = tested on: elevated blood glucose levels in adrenalectomized rats induced by hydrocortisone acetate; assay: Hydrocortisone acetate-induced hyperglycemia in adrenalectomized rats; format: in vivo, male Sprague Dawley rats; conditions: 4 mg/kg; hydrocortisone acetate intravenous
# [11] = tested on: elevated blood glucose levels in adrenalectomized rats induced by adrenalin; assay: Adrenalin-induced hyperglycemia in adrenalectomized rats; format: in vivo, male Sprague Dawley rats; conditions: 4 mg/kg; adrenalin (50 mg/kg) subcutaneous
# [12] = tested on: blood glucose level in alloxan diabetic rats; assay: Blood glucose level in alloxan diabetic rats loaded with much quantity of glucose; format: in vivo, male Sprague Dawley rats
# Experimental: as §2, §3
# [13] = 100 mg/kg, 10 consecutive days, control = 100
# [14] = maximum dose technically possible
smiles,measurement,setting,value
"Cc1cc(C)n(C(=O)CNS(=O)(=O)c2ccc(Cl)cc2)n1 [Example 4, 1-(N-p-chlorobenzenesulfonyl-glycyl)-3,5-dimethylpyrazole]",Effect of combined use with insulin on blood glucose level,[1],more effective to reduce the blood glucose level than the individual administration
same,Effect on serum FFA level (in words),[2],significantly lowered at 3 hours after the administration (p<0.005)
same,Triglyceride,"[3]; 100 mg/kg, 10 consecutive days",22.1 ± 4.6 mg/dl serum
same,"Triglyceride, relative to control (100)",[3]; [13],40.1
same,"Effect on serum triglyceride level, 10 days (in words)","[3]; oral, 10 days",significantly reduced
same,Maximum oral dose without death,Acute toxicity in mice; [14],about 17 g/kg
same,Mortality,"Acute toxicity in mice; oral, up to about 17g/kg",no mice or rats suffered death
same,Effect on serum FFA level (in words),[4],more effective than tolbutamide in lowering the serum FFA level
same,Serum FFA level,[4],17.4 ± 5.8 μ Eq/dl
same,Cholesterol,"[5]; 100 mg/kg, 10 consecutive days",46.1 ± 2.9 mg/dl serum
same,"Cholesterol, relative to control (100)",[5]; [13],77.6
same,"Effect on serum cholesterol level, 10 days (in words)","[5]; oral, 10 days",significantly reduced
same,Maximum oral dose without death,Acute toxicity in rats; [14],about 17 g/kg
same,Mortality,"Acute toxicity in rats; oral, up to about 17g/kg",no mice or rats suffered death
same,Blood glucose level,[6],66.5 ± 6.0 mg/dL
same,Effect on blood glucose level (in words),[6],significantly lowered the blood glucose level
same,Blood glucose before administration,[7],85.6 ± 3.2 mg%
same,Durability of hypoglycemic effect,"[7]; 50 mg/kg oral, 2, 4 and 6 hours",more durable than that of tolbutamide
same,Blood glucose 2 hours,[7]; 50 mg/kg oral,50.9 ± 1.2 mg%
same,Blood glucose 4 hours,[7]; 50 mg/kg oral,63.1 ± 3.0 mg%
same,Blood glucose 6 hours,[7]; 50 mg/kg oral,74.0 ± 1.6 mg%
same,FFA,"[8]; 100 mg/kg, 10 consecutive days",28.5 ± 7.6 μ Eq/dl serum
same,"FFA, relative to control (100)",[8]; [13],44.0
same,"Effect on serum FFA level, 10 days (in words)","[8]; oral, 10 days",significantly reduced
same,Serum FFA levels,[9]; 0.8 mg/kg oral once a day,46.8 ± 5.1 μ Eq/dl
same,Effect on serum FFA level (in words),[9]; 0.8 mg/kg/day oral,significantly lowered the serum FFA level even at a low dose (0.8mg/kg/day)
same,Serum FFA levels,[9]; 3.1 mg/kg oral once a day,35.9 ± 2.9 μ Eq/dl
same,Serum FFA levels,[9]; 12.5 mg/kg oral once a day,27.1 ± 1.5 μ Eq/dl
same,Serum FFA levels,[9]; 50.0 mg/kg oral once a day,27.9 ± 1.5 μ Eq/dl
same,Hypoglycemic activity on elevated blood glucose induced by hydrocortisone acetate,[10],exerted its hypoglycemic activity on elevated blood glucose levels in adrenalectomized rats
same,Hypoglycemic activity against hyperglycemia induced by adrenalin,[11],particularly effective against the hyperglycemia induced by adrenalin
same,Effect on blood glucose level (in words),"[12]; 12.5 and 100 mg/kg oral with 2g/kg of glucose, 3 hours",significantly lowered at 3 hours after the administration (p<0.005)
"CCCCNC(=O)NS(=O)(=O)c1ccc(C)cc1 [Tolbutamide, reference compound]",Effect of combined use with insulin on blood glucose level,[1],not more effective than the administration of tolbutamide alone
same,Serum FFA level,[4],30.8 ± 15.6 μ Eq/dl
same,Blood glucose level,[6],57.7 ± 12.1 mg/dL
same,Effect on blood glucose level (in words),[6],significantly lowered the blood glucose level
same,Blood glucose before administration,[7],86.2 ± 2.1 mg%
same,Blood glucose 2 hours,[7]; 50 mg/kg oral,44.7 ± 5.0 mg%
same,Blood glucose 4 hours,[7]; 50 mg/kg oral,60.4 ± 5.4 mg%
same,Blood glucose 6 hours,[7]; 50 mg/kg oral,80.7 ± 5.4 mg%
same,Serum FFA levels,[9]; 50.0 mg/kg oral once a day,45.1 ± 2.7 μ Eq/dl
same,Hypoglycemic effect (in words),"[12]; alloxan diabetic rats, dose not stated",no hypoglycemic effect
